How the values were obtained:
Format in all cases: cell-based
MKN45 cells = assay: MKN45 cell proliferation assay (Cell-Titer-Glo, 120 hr); conditions: for EC50: Homo sapiens, MKN-45, 120 h, read-out: MKN45 Cell Prolif. 120 hr EC50; for MKN45 Cell Prolif. 120 hr YMin (%): minimal percent of DMSO control observed
Procedure, shortened: (§1)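 Growth inhibition was read as CellTiter-Glo luminescence after 120 h at 37 °C in RPMI/10% FBS, with 400 MKN45 or 800 MDA-MB-231 cells seeded per well. Compounds were tested in 10-point half-log series starting at 1 or 10 uM (0.1% DMSO), in triplicate for MKN45 and duplicate for MDA-MB-231. EC50 values are four-parameter fits to %DMSO control, and Ymin-obs is the minimal observed %DMSO.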

WEE1 = molecular target: T1, WEE1 (Homo sapiens, UniProt P30291+Q96SW2); assay: WEE1-ePL degradation assay (293T-LentiX, InCELL Hunter luminescence, 4 hr); conditions: for DC50: LentiX-HEK293T cells expressing WEE1-ePL, 4 hr incubation, read-out: 293T-LentiX WEE1-ePL Degradation 4 hr EC50; for 293T-LentiX WEE1-ePL Degradation 4 hr YMin (%): lower limit of fit, % of DMSO control signal remaining
T1 construct: C-terminal ePL-tagged (DiscoverX, Fremont, CA) full-length WEE1 expression construct; expressed in transfected cells; host or cells: LentiX-HEK293T (Invitrogen), lentivirally transduced; the cells also over-express GSPT1-GN
Procedure, shortened: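 EC50 comes from a four-parameter logistic fit of ePL luminescence (InCELL Hunter), with DMSO control defining Ymax. Compounds ran as 10-point 3-fold dilutions from 1 or 10 µM for 4 h at 37 °C. Cells were HEK293T-LentiX with ePL-tagged full-length WEE1 and over-expressed Cereblon-resistant GSPT1-GN.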

MDA-MB-231 cells = assay: MDA-MB-231 cell proliferation assay (Cell-Titer-Glo, 120 hr); conditions: for EC50: Homo sapiens, MDA-MB-231, 120 h, read-out: MDA-MB 231 Cell Prolif. 120 hr EC50; for MDA-MB 231 Cell Prolif. 120 hr YMin (%): minimal percent of DMSO control observed
Procedure, shortened: as §1

T1 sequence (P30291 whole entry): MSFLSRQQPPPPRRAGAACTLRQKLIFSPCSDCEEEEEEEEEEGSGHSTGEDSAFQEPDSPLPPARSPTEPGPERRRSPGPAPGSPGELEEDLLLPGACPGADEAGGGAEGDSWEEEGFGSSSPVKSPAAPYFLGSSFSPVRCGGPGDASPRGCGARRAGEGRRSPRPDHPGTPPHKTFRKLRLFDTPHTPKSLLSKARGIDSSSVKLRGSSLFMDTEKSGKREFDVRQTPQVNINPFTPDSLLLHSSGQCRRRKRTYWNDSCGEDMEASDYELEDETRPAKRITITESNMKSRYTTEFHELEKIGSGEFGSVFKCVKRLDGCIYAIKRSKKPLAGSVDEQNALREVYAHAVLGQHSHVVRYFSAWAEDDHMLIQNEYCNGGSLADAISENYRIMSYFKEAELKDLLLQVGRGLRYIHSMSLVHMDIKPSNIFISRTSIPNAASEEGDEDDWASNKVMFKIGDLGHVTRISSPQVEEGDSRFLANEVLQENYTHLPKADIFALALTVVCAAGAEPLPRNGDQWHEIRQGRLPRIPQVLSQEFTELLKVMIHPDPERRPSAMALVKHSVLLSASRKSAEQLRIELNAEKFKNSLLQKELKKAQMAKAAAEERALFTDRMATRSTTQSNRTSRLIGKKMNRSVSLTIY
T1 sequence (Q96SW2 whole entry): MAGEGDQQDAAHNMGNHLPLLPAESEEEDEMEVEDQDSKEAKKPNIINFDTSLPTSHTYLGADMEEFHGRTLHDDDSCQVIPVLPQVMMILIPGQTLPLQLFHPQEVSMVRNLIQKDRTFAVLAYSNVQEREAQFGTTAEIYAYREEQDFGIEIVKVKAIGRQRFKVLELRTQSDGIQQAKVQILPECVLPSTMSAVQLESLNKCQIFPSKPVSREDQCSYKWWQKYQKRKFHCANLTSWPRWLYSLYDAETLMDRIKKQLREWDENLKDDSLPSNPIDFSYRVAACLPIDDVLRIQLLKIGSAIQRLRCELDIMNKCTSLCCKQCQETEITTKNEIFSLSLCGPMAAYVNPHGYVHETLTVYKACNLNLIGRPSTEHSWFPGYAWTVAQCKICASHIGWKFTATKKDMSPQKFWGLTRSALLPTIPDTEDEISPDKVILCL
T1 sequence (Q16531 whole entry partner): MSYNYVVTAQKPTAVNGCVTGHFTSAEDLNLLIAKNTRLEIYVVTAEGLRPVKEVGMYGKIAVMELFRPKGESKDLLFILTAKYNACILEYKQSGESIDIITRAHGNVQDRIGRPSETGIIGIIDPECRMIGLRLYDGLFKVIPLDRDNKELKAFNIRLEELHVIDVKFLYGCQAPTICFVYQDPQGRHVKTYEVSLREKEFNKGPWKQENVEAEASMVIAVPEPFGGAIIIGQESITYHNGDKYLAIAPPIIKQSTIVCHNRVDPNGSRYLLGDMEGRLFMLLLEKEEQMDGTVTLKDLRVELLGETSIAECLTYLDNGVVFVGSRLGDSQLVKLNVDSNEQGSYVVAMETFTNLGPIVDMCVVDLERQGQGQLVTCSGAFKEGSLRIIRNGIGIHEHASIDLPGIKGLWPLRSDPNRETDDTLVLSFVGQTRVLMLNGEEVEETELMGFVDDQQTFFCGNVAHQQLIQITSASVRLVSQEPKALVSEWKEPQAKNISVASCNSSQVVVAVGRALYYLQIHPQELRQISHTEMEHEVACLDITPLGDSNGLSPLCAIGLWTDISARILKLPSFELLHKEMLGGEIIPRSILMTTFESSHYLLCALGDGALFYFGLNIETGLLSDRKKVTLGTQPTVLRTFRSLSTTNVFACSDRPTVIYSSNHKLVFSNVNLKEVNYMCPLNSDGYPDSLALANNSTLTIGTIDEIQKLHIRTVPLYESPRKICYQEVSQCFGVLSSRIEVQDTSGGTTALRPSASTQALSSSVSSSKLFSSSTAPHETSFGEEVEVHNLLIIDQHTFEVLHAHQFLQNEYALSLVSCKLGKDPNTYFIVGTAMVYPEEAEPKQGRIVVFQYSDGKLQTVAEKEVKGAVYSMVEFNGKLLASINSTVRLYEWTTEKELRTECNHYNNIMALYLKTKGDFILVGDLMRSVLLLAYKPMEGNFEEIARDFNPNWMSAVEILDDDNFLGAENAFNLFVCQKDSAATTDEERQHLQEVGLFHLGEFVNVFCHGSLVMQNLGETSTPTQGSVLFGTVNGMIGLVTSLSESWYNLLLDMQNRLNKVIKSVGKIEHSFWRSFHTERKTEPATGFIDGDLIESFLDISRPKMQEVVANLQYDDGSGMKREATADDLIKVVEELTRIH

Row | Structure (SMILES) | EC50 (MKN45 cells) [nM] | MKN45 Cell Prolif. 120 hr YMin (%) (MKN45 cells) | DC50 (WEE1) [nM] | 293T-LentiX WEE1-ePL Degradation 4 hr YMin (%) (WEE1) | EC50 (MDA-MB-231 cells) [nM] | MDA-MB 231 Cell Prolif. 120 hr YMin (%) (MDA-MB-231 cells)
1 | COC[C@@H]1CN(Cc2cc(F)c3nc(N4C[C@@H]5CCO[C@@H]5C4)ncc3c2)C[C@H]1Oc1ccc2c(c1)CN([C@H]1CCC(=O)NC1=O)C2=O (single isomer, unassigned) [Example 13, (S)-3-(5-(((3S,4S)-1-((8-fluoro-2-((3aS*,6aS*)-hexahydro-5H-furo[2,3-c]pyrrol-5-yl)quinazolin-6-yl)methyl)-4-(methoxymethyl)pyrrolidin-3-yl)oxy)-1-oxoisoindolin-2-yl)piperidine-2,6-dione] | 3 | 11.9 | 1 | 22.1 | 61 | 37.3
2 | COC[C@@H]1CN(Cc2cc(F)c3nc(N4CCC45CCOCC5)ccc3c2)C[C@H]1Oc1ccc2c(c1)CN([C@H]1CCC(=O)NC1=O)C2=O [Example 72, (3S)-3-(5-{[(3S,4S)-1-[(8-fluoro-2-{7-oxa-1-azaspiro [3.5]nonan-1-yl}quinolin-6-yl)methyl]-4-(methoxymethyl)pyrrolidin-3-yl]oxy}-1-oxo-2,3-dihydro-1H-isoindol-2-yl)piperidine-2,6-dione] | 1 | 9.3 | 1 | 27.3 | 14 | 20.7
3 | O=C1CC[C@H](N2Cc3cc(O[C@H]4CCN(Cc5cc(F)c6nc(N7C[C@@H]8CCO[C@@H]8C7)ncc6c5)C4)ccc3C2=O)C(=O)N1 (single isomer, unassigned) [Example 19, (S)-3-(5-(((S)-1-((8-fluoro-2-((3aS*,6aS*)-hexahydro-5H-furo[2,3-c]pyrrol-5-yl)quinazolin-6-yl)methyl)pyrrolidin-3-yl)oxy)-1-oxoisoindolin-2-yl)piperidine-2,6-dione] | 12 | 10.1 | 6 | 31.4 | 104 | 58.4
4 | COC[C@@H]1CN(Cc2cnc3nc(C4CCOCC4)ccc3c2)C[C@H]1Oc1ccc2c(c1)CN([C@H]1CCC(=O)NC1=O)C2=O [Example 129, (3S)-3-(5-{[(3S,4S)-4-(methoxymethyl)-1-{[7-(oxan-4-yl)-1,8-naphthyridin-3-yl]methyl}pyrrolidin-3-yl]oxy}-1-oxo-2,3-dihydro-1H-isoindol-2-yl)piperidine-2,6-dione] | 10 | 10.6 | 2 | 26.0 | 319 | 80.6
5 | COC[C@@H]1CN(Cc2ncc3cc(N4CCOCC4)ccc3c2F)C[C@H]1Oc1ccc2c(c1)CN([C@H]1CCC(=O)NC1=O)C2=O [Example 71, (3S)-3-(5-{[(3S,4S)-1-{[4-fluoro-7-(morpholin-4-yl)isoquinolin-3-yl]methyl}-4-(methoxymethyl)pyrrolidin-3-yl]oxy}-1-oxo-2,3-dihydro-1H-isoindol-2-yl)piperidine-2,6-dione] | 1 | 8.7 |  | 25.3 | 5 | 26.6
6 | O=C1CC[C@H](N2Cc3cc(O[C@H]4CCN(Cc5cc(F)c6nc(N7C[C@H]8CCO[C@H]8C7)ccc6c5)C4)ccc3C2=O)C(=O)N1 (single isomer, unassigned) [Example 7, (S)-3-(5-(((S)-1-((8-fluoro-2-((3aR*,6aR*)-hexahydro-5H-furo[2,3-c]pyrrol-5-yl)quinolin-6-yl)methyl)pyrrolidin-3-yl)oxy)-1-oxoisoindolin-2-yl)piperidine-2,6-dione] | 5 | 13.7 | 1 | 31.9 | 74 | 64.0
7 | COC[C@@H]1CN(Cc2cc(F)c3nc(C4CCCN4C)ccc3c2)C[C@H]1Oc1ccc2c(c1)CN([C@H]1CCC(=O)NC1=O)C2=O (relative stereo) [Example 66, rel-(3S)-3-(5-(((3S,4S)-1-((8-fluoro-2-(1-methylpyrrolidin-2-yl)quinolin-6-yl)methyl)-4-(methoxymethyl)pyrrolidin-3-yl)oxy)-1-oxoisoindolin-2-yl)piperidine-2,6-dione] | 5 | 13.9 | 3 | 32.7 | 107 | 57.1
8 | COC[C@@H]1CN(Cc2cc(F)c3nc(C4CCC(C(C)(C)O)CC4)ncc3c2)C[C@H]1Oc1ccc2c(c1)CN([C@H]1CCC(=O)NC1=O)C2=O (relative stereo) [Example 111, rel-(S)-3-(5-(((3S,4S)-1-((8-fluoro-2-(4-(2-hydroxypropan-2-yl)cyclohexyl)quinazolin-6-yl)methyl)-4-(methoxymethyl)pyrrolidin-3-yl)oxy)-1-oxoisoindolin-2-yl)piperidine-2,6-dione] | 1 | 7.8 | 1 | 27.1 | 26 | 16.4
9 | COC[C@@H]1CN(Cc2cc3ccc(N4CCOCC4)c(F)c3cn2)C[C@H]1Oc1ccc2c(c1)CN([C@H]1CCC(=O)NC1=O)C2=O [Example 48, (3S)-3-(5-{[(3S,4S)-1-{[8-fluoro-7-(morpholin-4-yl)isoquinolin-3-yl]methyl}-4-(methoxymethyl)pyrrolidin-3-yl]oxy}-1-oxo-2,3-dihydro-1H-isoindol-2-yl)piperidine-2,6-dione] | 1 | 7.8 |  | 22.9 | 4 | 22.0
10 | COC[C@@H]1CN(Cc2cc3ccc(C4CCOCC4)nc3cn2)C[C@H]1Oc1ccc2c(c1)CN([C@H]1CCC(=O)NC1=O)C2=O [Example 135, (3S)-3-(5-{[(3S,4S)-4-(methoxymethyl)-1-{[2-(oxan-4-yl)-1,7-naphthyridin-6-yl]methyl}pyrrolidin-3-yl]oxy}-1-oxo-2,3-dihydro-1H-isoindol-2-yl)piperidine-2,6-dione] | 1 | 8.8 | 1 | 35.7 | 31 | 55.6
11 | COC[C@@H]1CN(Cc2cc(F)c3nc(N4CCC45CCOCC5)ncc3c2)C[C@H]1Oc1ccc2c(c1)CN([C@H]1CCC(=O)NC1=O)C2=O [Example 73, (3S)-3-(5-{[(3S,4S)-1-[(8-fluoro-2-{7-oxa-1-azaspiro[3.5]nonan-1-yl}quinazolin-6-yl)methyl]-4-(methoxymethyl)pyrrolidin-3-yl]oxy}-1-oxo-2,3-dihydro-1H-isoindol-2-yl)piperidine-2,6-dione] | 3 | 9.4 | 1 | 28.9 | 41 | 34.0
12 | COC[C@@H]1CN(Cc2cc(F)c3nc(C4CCN(C5COC5)CC4)ccc3c2)C[C@H]1Oc1ccc2c(c1)CN([C@H]1CCC(=O)NC1=O)C2=O [Example 143, (3S)-3-(5-{[(3S,4S)-1-({8-fluoro-2-[1-(oxetan-3-yl)piperidin-4-yl]quinolin-6-yl}methyl)-4-(methoxymethyl)pyrrolidin-3-yl]oxy}-1-oxo-2,3-dihydro-1H-isoindol-2-yl)piperidine-2,6-dione] | 1 | 8.9 | 1 | 27.3 | 27 | 35.5
13 | COC[C@@H]1CN(Cc2cc(F)c3nc(N4CCN(CC(F)(F)F)CC4)ncc3c2)C[C@H]1Oc1ccc2c(c1)CN([C@H]1CCC(=O)NC1=O)C2=O [Example 35, (3S)-3-(5-{[(3S,4S)-1-({8-fluoro-2-[4-(2,2,2-trifluoroethyl)piperazin-1-yl]quinazolin-6-yl}methyl)-4-(methoxymethyl)pyrrolidin-3-yl]oxy}-1-oxo-2,3-dihydro-1H-isoindol-2-yl)piperidine-2,6-dione] | 2 | 10.0 | 1 | 28.1 | 33 | 16.7
14 | COC[C@@H]1CN(Cc2ccc3nc(N4CCN(C5CN(C)C5)CC4)ccc3c2)C[C@H]1Oc1ccc2c(c1)CN([C@H]1CCC(=O)NC1=O)C2=O [Example 113, (3S)-3-(5-{[(3S,4S)-4-(methoxymethyl)-1-({2-[4-(1-methylazetidin-3-yl)piperazin-1-yl]quinolin-6-yl}methyl)pyrrolidin-3-yl]oxy}-1-oxo-2,3-dihydro-1H-isoindol-2-yl)piperidine-2,6-dione] | 4 | 9.0 | 9 | 29.5 | 98 | 55.3

Reference: US20250197374A1, “WEE1 DEGRADING COMPOUNDS AND USES THEREOF” (BRISTOL-MYERS SQUIBB COMPANY, priority 2023, published 2025)
